Here are results for 13 molecules from patent US20030171218A1, “Substituted 3-heteroaryl(amino- or oxy)pyrrolidin-2-ones, their preparation and use as herbicides or plant growth regulators” (priority 2001, published 2003).

Series [1] concerns weed plants such as Digitaria sanguinalis, Echinochloa crus-galli, Setaria faberi, Setaria viridis, Sorghum halepense, Abutilon theophrasti, Amaranthum …. The series can be described thus: Pre-emergence effect on weeds (greenhouse pot test). It counts as in vivo, monocotyledonous and dicotyledonous weed plants. The note with it: application rate of 1 kg or less of active substance per hectare; scored visually after 3 to 4 weeks by comparison with untreated controls. In short, it runs like this:
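Weed seeds or rhizome pieces sown in sandy loam and covered; compounds, formulated as wettable powders or emulsion concentrates, sprayed onto the soil surface as aqueous suspensions/emulsions at 600 to 800 l water/ha in various dosages. Greenhouse growth; visual scoring of plant damage/emergence versus untreated controls after 3 to 4 weeks.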

Series [2] has as its system harmful plants such as Digitaria sanguinalis, Echinochloa crus-galli, Setaria faberi, Setaria viridis, Sorghum halepense, Abutilon theophrasti, Amaranthum …. Kind of series: Post-emergence effect on weeds (greenhouse pot test). The note with it: application rate of 1 kg and less of active substance per hectare; treated at three-leaf stage; scored visually after about 3 to 4 weeks by comparison with untreated controls. The series is classed as in vivo, monocotyledonous and dicotyledonous weeds. The essentials:
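Greenhouse-grown weeds in sandy loam, sprayed at three-leaf stage (three weeks after sowing) with wettable powder or emulsion concentrate formulations at various dosages in 600 to 800 l water/ha. Effect scored visually against untreated controls after about 3 to 4 weeks.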

`CC(C)(F)c1nc(N)nc(OC2CCN(c3ccccc3)C2=O)n1` (stereo not shown) [Example A55] yielded a melting point of 77 °C. Further, the herbicidal activity pre-emergence entry in series [1] is “very good herbicidal activity”. In addition, in series [2], the herbicidal activity post-emergence result is “very good herbicidal activity”.
`CC(C)c1nc(N)nc(NC2CCN(c3ccccc3)C2=O)n1` (stereo not shown) [Example A20]: the melting point stood at 210 °C. For the same molecule, the herbicidal activity pre-emergence result in series [1] was “very good herbicidal activity”. In addition, the herbicidal activity post-emergence result in series [2] is given as “very good herbicidal activity”.
On to `CN(c1nc(N)nc(C(C)(C)F)n1)C1CCN(c2cccc(OC(F)(F)F)c2)C1` (stereo not shown) [Example E49], for which, in series [1], the herbicidal activity pre-emergence result is “very good herbicidal activity”. Also, the herbicidal activity post-emergence result in series [2] was “very good herbicidal activity”.
Consider `COc1cccc(N2CCC(Oc3nc(N)nc(C(C)(C)F)n3)C2=O)c1` (stereo not shown) [Example A59], for which, in series [1], the herbicidal activity pre-emergence entry was “very good herbicidal activity”. In addition, the herbicidal activity post-emergence result in series [2] is on record as “very good herbicidal activity”.
Regarding `Cc1cccc(N2CCC(Nc3nc(N)nc(C(C)(C)F)n3)C2)c1` (stereo not shown) [Example E7], the herbicidal activity pre-emergence result in series [1] is “very good herbicidal activity”. Also, the herbicidal activity post-emergence entry in series [2] was “very good herbicidal activity”.
As for `Cc1cccc(N2CCC(Nc3nc(N)nc(C(C)C)n3)C2=O)c1` (stereo not shown) [Example A22], in series [1], the herbicidal activity pre-emergence entry is reported as “very good herbicidal activity”. In series [2], the herbicidal activity post-emergence entry is reported as “very good herbicidal activity”.
For `CC(C)c1nc(N)nc(NC2CCN(c3cccc(C(F)(F)F)c3)C2=O)n1` (stereo not shown) [Example A21], the herbicidal activity pre-emergence entry in series [1] was “very good herbicidal activity”. In series [2], the herbicidal activity post-emergence result was “very good herbicidal activity”.
`Cc1cc(N2CCC(Nc3nc(N)nc(C(C)F)n3)C2=O)ccc1F` (stereo not shown) [Example A15]: in series [1], the herbicidal activity pre-emergence entry was “very good herbicidal activity”. Besides, the herbicidal activity post-emergence result in series [2] was “very good herbicidal activity”.
For the molecule `CC(C)c1nc(N)nc(OC2CCN(c3cccc(C(F)(F)F)c3)C2=O)n1` (stereo not shown) [Example A46], in series [1], the herbicidal activity pre-emergence result was “very good herbicidal activity”. Besides, in series [2], the herbicidal activity post-emergence entry is recorded as “very good herbicidal activity”.
As to `Cc1cccc(N2CCC(Nc3nc(N)nc(C(C)C)n3)C2)c1` (stereo not shown) [Example E9], the herbicidal activity pre-emergence result in series [1] was “very good herbicidal activity”. Moreover, the herbicidal activity post-emergence result in series [2] was “very good herbicidal activity”.
As for `Cc1nc(N)nc(NC2CCN(c3ccccc3)C2=O)n1` (stereo not shown) [Example A2], in series [1], the herbicidal activity pre-emergence entry was “very good herbicidal activity”. For the same molecule, in series [2], the herbicidal activity post-emergence result is reported as “very good herbicidal activity”.
Regarding `CN(c1nc(N)nc(C(C)(C)F)n1)C1CCN(c2cccc(OC(F)(F)F)c2)C1=O` (stereo not shown) [Example A80], in series [1], the herbicidal activity pre-emergence entry was “very good herbicidal activity”. Further, the herbicidal activity post-emergence result in series [2] is listed as “very good herbicidal activity”.
With `Cc1cc(C)cc(N2CCC(N(C)c3nc(N)nc(C(C)F)n3)C2=O)c1` (stereo not shown) [Example A65], in series [1], the herbicidal activity pre-emergence result is “very good herbicidal activity”. For the same molecule, the herbicidal activity post-emergence result in series [2] is “very good herbicidal activity”.
